US12398117B2, “Heteroarylamidopyridinol derivative and pharmaceutical composition comprising same as active ingredient for prevention or treatment of autoimmune disease” (INNOVO THERAPEUTICS INC., priority 2019, dated 2025)

Assays:
[1] = test system: DSS-induced acute enteritis mouse model; assay: Oral efficacy in DSS-induced acute enteritis mouse model; assay type: in vivo, C57BL/6 mice; conditions: for Body weight recovery rate (%) / Intestinal weight recovery rate (%): acute enteritis (DSS), mouse
Description: (§1) C57BL/6 mice aged 7-8 weeks were purchased from OrientBio (Korea), stabilized with general solid feed for 7 days, and then used in this experiment. Feed and water were freely supplied during the experiment period, and the temperature of the breeding room was maintained at 25±1° C. and the relative humidity at 50±10%. Lighting management was controlled in a 12-hour light-dark cycle by an automatic lighting controller.
Enteritis was induced in mice by allowing them to freely ingest drinking water containing 2% DSS salt (M.W. 36,000˜50,000, MP Biomedicals, LLC, OH, USA). For the chronic enteritis model, DSS was administered using a schedule of DSS administration for the first 7 days, administration of normal drinking water for 14 days, repeated administration of DSS for 7 days from the 21st day, and administration of normal drinking water for 7 days. The drug was administered once a day, 6 days a week from the first day of DSS treatment (FIG. 2A). […] In order to measure the dose-dependent therapeutic effect of the drug in the acute enteritis model, DSS was administered for 5 days to induce enteritis, and then the drug was administered for 14 days to measure the degree of recovery and treatment of enteritis (FIG. 3A). The drug was administered orally once daily for […] at a fixed time.
Changes in body weight of each mouse were observed during the DSS and drug administration using a digital mass meter.
The colon of the mouse was extracted, and the length and weight from the anus to the cecum were measured.
The degree of neutrophil infiltration in the tissue was measured by the amount of MPO, a neutrophil marker enzyme. The colon tissue with a size of 1 cm was washed with cold PBS and weighed, to which a lysis buffer (pH7.4, 200 mM NaCl, 5 mM EDTA, 10 mM tris, 10% glycerin, 1 mM PMSF, 1 μg/mL leupeptin and 28 μg/mL aprotinin) was added (500 μL of per 10 mg of tissue weight), and then homogenized using Bead Blaster® D2400 homogenizer (Benchmark Scientific, NJ, USA). […] (HK210, Hycult Biotechnology, Netherlands). The supernatant was added to a 96 well plate (100 μL/well) coated with an anti-mouse MPO antibody, and incubated for 1 hour at room temperature, followed by washing 3 times with a washing buffer. A reconstituted tracer was added to the plate (100 μL/well), which was reacted at room temperature for 1 hour, washed 3 times, and then 100 μL of streptavidin-peroxidase conjugate was added to each well of the plate. The plate was reacted at room temperature for 1 hour, washed, and 100 μl of TMB substrate solution was added to each well of the plate, followed by reaction for 30 minutes. The reaction was terminated by adding 100 μL of a stop solution to each well of the plate, and absorbance was measured at 450 nm. MPO activity means the amount of 1 μM […] at 25° C. for 1 minute. This was calculated as the amount of MPO contained in 1 mL of the colon tissue homogenate.
Tissue staining was performed in the same manner as in the case of hematoxylin/eosin staining of the rat colon tissue, and scoring indexes of mucosal damage and recovery were applied in the same way.

[2] = test system: adhesion of intestinal epithelial cells (HT-29) and monocytic cells (U937) induced by IL-6; assay: Inhibition of IL-6-induced adhesion of monocytes and intestinal epithelial cells; assay type: cell-based, human; conditions: Homo sapiens
How it was run: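 HT-29 monolayers pretreated 1 h with test drug in 1% FBS medium, then co-incubated 3 h at 37 °C with BCECF-labeled U937 monocytes plus IL-6 (10 ng/mL). After removal of non-adherent cells, bound monocytes quantified by BCECF fluorescence of Triton X-100 lysates.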

[3] = test system: TNBS-induced inflammatory bowel disease rat model; assay: Oral efficacy in TNBS-induced inflammatory bowel disease rat model; assay type: in vivo, Sprague Dawley rats
Description: as §1, with “Sprague Dawley rats aged” for “C57BL/6 mice aged”, “for 3” for “for 7”
After anesthetizing rats that had been fasted for 24 hours with diethyl ether, 0.8 mL of 5% TNBS diluted with 50v/v % ethanol was slowly injected into the lumen of the colon using a 1 mL syringe connected to a polyethylene catheter, and then, the rats were left standing for 60 seconds in an inverted position in order to prevent 5% TNBS from leaking into the anus. For the control group, only vehicle [50v/v % ethanol] was injected in the same manner as in the other groups (Thapa et al., 2008).
In order to investigate the effect of the drug, the drug was administered at a constant time every day for 5 days from the day after the TNBS treatment.
Changes in body weight of each rat were observed from the fasting stage to the TNBS administration and drug administration process using a digital mass meter.
The colon of the rat was extracted, and the tissue 5-6 cm away from the anus was cut into a length of 1 cm, and the weight of the tissue was measured.
The weighed rat tissues were fixed with 4% paraformaldehyde solution, and then transferred to 30% sucrose solution. When the tissues subside, they were taken out and cut into […] thick using a cryomicrotome (Microm HM 450, Thermo Fisher Scientific, Germany) and stored in a cryopreservation solution. After washing the tissue section with KPBS, the tissue section was attached to a slide glass, dried, and then stained with hematoxylin & Eosin and observed under a microscope.

[4] = 0.3 mg/kg, dose-dependence test (Table 7)
[5] = 1 mg/kg, dose-dependence test (Table 7)
[6] = 3 mg/kg, dose-dependence test (Table 7)
[7] = 10 mg/kg, dose-dependence test (Table 7)
[8] = oral 1 mg/kg, 5 days, fixed-dose test (Table 6)

**Q.** `Cc1ccc2[nH]c(C(=O)Nc3nc(C)c(O)c(C)c3C)cc2c1` [Compound X-09, N-(5-hydroxy-3,4,6-trimethylpyridin-2-yl)-5-methyl-1H-indole-2-carboxamide] was tested. Which “Morphological observation of colon, therapeutic effect versus tofacitinib” value ([1]; DSS acute mouse, 10 mg/kg, FIG. 3C) did it give?
**A.** The value was “significantly superior to that of the control group treated with 30 mg/kg of tofacitinib”.

**Q.** What about the “Morphological observation of colon” value ([1]; DSS acute mouse, X-09 dose range, FIG. 3C) of the same molecule?
**A.** Its value is “dose-dependent therapeutic efficacy”.

**Q.** And the “level of MPO in colon tissue” value ([1]; DSS acute mouse, X-09 dose range, FIG. 3E)?
**A.** The value was “decreased by compound X-09 dose-dependently”.

**Q.** What about the “Mucosal damage recovery of mouse colon (hematoxylin-eosin score)” value ([1]; DSS mouse, X-09 dose range, FIG. 4) of the same molecule?
**A.** The value was “dose-dependent mucosal damage recovery effect”.

**Q.** And the “Body weight recovery rate (%)” value ([1]; 0.3 mg/kg)?
**A.** Its value is 56.5%.

**Q.** And the “Intestinal weight recovery rate (%)” value ([1]; 0.3 mg/kg)?
**A.** The value was 48.4%.

**Q.** And the “Body weight recovery rate (%)” value ([1]; 1 mg/kg)?
**A.** The value was 72.0%.

**Q.** What about the “Intestinal weight recovery rate (%)” value ([1]; 1 mg/kg) of the same molecule?
**A.** The value was 76.7%.

**Q.** What about the “Body weight recovery rate (%)” value ([1]; 3 mg/kg) of the same molecule?
**A.** The value was 80.7%.

**Q.** And the “Intestinal weight recovery rate (%)” value ([1]; 3 mg/kg)?
**A.** Its value is 89.0%.

**Q.** And the “Body weight recovery rate (%)” value ([1]; 10 mg/kg)?
**A.** Its value is 88.1%.

**Q.** What about the “Intestinal weight recovery rate (%)” value ([1]; 10 mg/kg) of the same molecule?
**A.** Its value is 96.4%.

**Q.** And the inhibition at 1 µM ([2]; 3 h, test drug 1 μM, IL-6 10 ng/mL, HT-29/U937, read-out: inhibitory activity (%))?
**A.** The inhibition at 1 µM was 71.7%.

**Q.** What about the IC50 ([2]; inhibition of adhesion by IL-6) of the same molecule?
**A.** The IC50 was 340 nM.

**Q.** And the “Body weight recovery rate (%)” value [3, 4]?
**A.** Its value is 17.2%.

**Q.** And the “Intestinal weight recovery rate (%)” value [3, 4]?
**A.** Its value is 47.0%.

**Q.** What about the “Body weight recovery rate (%)” value [3, 5] of the same molecule?
**A.** Its value is 69.3%.

**Q.** What about the “Intestinal weight recovery rate (%)” value [3, 5] of the same molecule?
**A.** Its value is 85.2%.

**Q.** And the “Body weight recovery rate (%)” value [3, 6]?
**A.** Its value is 74.6%.

**Q.** What about the “Intestinal weight recovery rate (%)” value [3, 6] of the same molecule?
**A.** The value was 91.7%.

**Q.** And the “Body weight recovery rate (%)” value [3, 7]?
**A.** Its value is 80.8%.

**Q.** And the “Intestinal weight recovery rate (%)” value [3, 7]?
**A.** The value was 98.9%.

**Q.** And the “Mucosal damage recovery of rat colon (hematoxylin-eosin score)” value ([3]; X-09 dose range, FIG. 1)?
**A.** Its value is “dose-dependent mucosal damage recovery activity”.

**Q.** What about the “Morphological observation of colon (visual symptoms, adhesions, congestion)” value ([3]; after 5 days of drug administration, sulfasalazine 300 mg/kg, X-09 0.3-10 mg/kg) of the same molecule?
**A.** Its value is “dose-dependent therapeutic activity for enteritis”.

**Q.** And the “Body weight recovery rate (%)” value [3, 8]?
**A.** Its value is 72.7%.

**Q.** And the “Intestinal weight recovery rate (%)” value [3, 8]?
**A.** The value was 94.0%.
